The values that follow come from the Kinase Knowledgebase extract (Sharma et al. 2016).

For experiment [1], the target named is MAPK14 (human) (UniProt Q16539). Put plainly: Inhibition of MAPK14 Kinase Activity by EGFRP Assay.
Experiment [2] shares this target. Put plainly: Inhibition of LPS Stimulated TNF Production by U937 Cells. The note with it: for inhibition: concentration not given here.
Experiment [3] shares this target. The experiment in a line: Inhibition of MAPK14 Kinase Activity by PHAS-I Assay. The note with it: for inhibition: concentration not given here.

Each structure is given as a SMILES string. pIC50: −log10 of the molar value.

Chain of MAPK14 (human) (Q16539 whole entry, looked up): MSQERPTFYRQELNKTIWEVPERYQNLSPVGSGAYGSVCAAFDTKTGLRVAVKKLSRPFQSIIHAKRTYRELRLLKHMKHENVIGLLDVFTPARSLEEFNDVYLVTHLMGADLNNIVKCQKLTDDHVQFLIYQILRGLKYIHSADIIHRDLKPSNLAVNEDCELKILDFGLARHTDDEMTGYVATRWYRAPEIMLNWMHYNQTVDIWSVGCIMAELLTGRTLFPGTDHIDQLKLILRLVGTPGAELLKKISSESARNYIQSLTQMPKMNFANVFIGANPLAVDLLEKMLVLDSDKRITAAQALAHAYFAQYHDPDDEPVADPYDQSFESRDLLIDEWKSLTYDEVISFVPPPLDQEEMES

For `Fc1ccc(-c2n[nH]cc2-c2ccnc(NCCn3ccnc3)c2)cc1`, the negative logarithm of the IC50 (pIC50) against MAPK14 (human) [1] was greater than 8.00; on MAPK14 (human) [2] it was 8.13.

On MAPK14 (human) [1], `Cc1cc(-c2cn(C)nc2-c2cccc(Cl)c2)ccn1.Cc1cc(-c2cnn(C)c2-c2cccc(Cl)c2)ccn1` gave a pIC50 of 7.36.

For `Cc1cccc(-c2c(-c3ccnc(C)c3)cnn2C)c1`, on MAPK14 (human) [1], the pIC50 is 6.98.

Compound `O=C(NCCCc1[nH]nc(-c2ccc(F)cc2)c1-c1ccncc1)NCCc1cccnc1` gave a pIC50 at MAPK14 (human) [3] of 7.15. The compound also showed an inhibition against MAPK14 (human) [2] of 18%.

`Cn1cc(-c2ccncc2)c(-c2cccc(Cl)c2)n1.Cn1ncc(-c2ccncc2)c1-c1cccc(Cl)c1`: the pIC50 against MAPK14 (human) [1] is 6.99.

`COc1ccccc1NC(=O)NCCc1[nH]nc(-c2ccc(F)cc2)c1-c1ccncc1` came in with an inhibition against MAPK14 (human) [3] of 62%. Moreover, the negative-log IC50 (pIC50) on MAPK14 (human) [2] is 6.28.

With `COc1ccc(CC(=O)NCCCc2[nH]nc(-c3ccc(F)cc3)c2-c2ccncc2)cc1`, the inhibition against MAPK14 (human) [3] worked out at 70%. This compound had a pIC50 against MAPK14 (human) [2] of 5.94.

For the compound `O=S(=O)(Cc1ccccc1)NCCc1[nH]nc(-c2ccc(F)cc2)c1-c1ccncc1`, the inhibition at MAPK14 (human) [3] was 96%; against MAPK14 (human) [2], 58%.

For the compound `O=C(NCCc1[nH]nc(-c2ccc(F)cc2)c1-c1ccncc1)Nc1ccccc1-c1ccccc1`, the inhibition is 63% against MAPK14 (human) [3] and 35% at MAPK14 (human) [2].

Consider `NC(=O)NCCc1[nH]nc(-c2ccc(F)cc2)c1-c1ccncc1`, for which the inhibition against MAPK14 (human) [3] worked out at 76%; at MAPK14 (human) [2], 60%.

Compound `C[C@H](NS(=O)(=O)C[C@@]12CC[C@H](CC1=O)C2(C)C)c1[nH]nc(-c2ccc(F)cc2)c1-c1ccncc1` had a negative logarithm of the IC50 (pIC50) against MAPK14 (human) [3] of 6.80. This compound gave an inhibition against MAPK14 (human) [2] of 60%.

For `O=C(NCc1[nH]nc(-c2ccc(F)cc2)c1-c1ccncc1)C(F)(F)C(F)(F)C(F)(F)F`, the inhibition on MAPK14 (human) [3] turned out to be 96%; against MAPK14 (human) [2], 54%.

Turning to `Cc1cc(C)c(NC(=O)NCCc2[nH]nc(-c3ccc(F)cc3)c2-c2ccncc2)c(C)c1`, the figures for the inhibition on MAPK14 (human) [3] and against MAPK14 (human) [2] were 57% and 47%, respectively.

On to `O=S(=O)(NCCc1[nH]nc(-c2ccc(F)cc2)c1-c1ccncc1)c1ccc(F)cc1F`, for which the inhibition against MAPK14 (human) [3] was 88%; at MAPK14 (human) [2], 34%.

For `COc1cc(NC(=O)NCCc2[nH]nc(-c3ccc(F)cc3)c2-c2ccncc2)cc(OC)c1OC`, the inhibition on MAPK14 (human) [3] was 56%; against MAPK14 (human) [2], 23%.

In the case of `CCCNC(=O)NCCc1[nH]nc(-c2ccc(F)cc2)c1-c1ccncc1`, the inhibition at MAPK14 (human) [3] turned out to be 70%; against MAPK14 (human) [2], 73%.

On to `CCOC(=O)CC[C@H](NC(=O)Cn1nc(-c2ccc(F)cc2)c(-c2ccncc2)c1C)C(=O)OCC`, for which the inhibition against MAPK14 (human) [3] stood at 45%. Besides, the pIC50 at MAPK14 (human) [2] was less than 5.00.

As to `CCOC(=O)c1cccc(NC(=O)NCCc2[nH]nc(-c3ccc(F)cc3)c2-c2ccncc2)c1`, the values for the inhibition against MAPK14 (human) [3] and at MAPK14 (human) [2] were 82% and 2%, respectively.

In the case of `O=S(=O)(NCCc1[nH]nc(-c2ccc(F)cc2)c1-c1ccncc1)c1cccs1`, the inhibition against MAPK14 (human) [3] is 87%; against MAPK14 (human) [2], 53%.

As for `O=S(=O)(/C=C/c1ccccc1)NCCc1[nH]nc(-c2ccc(F)cc2)c1-c1ccncc1`, the inhibition on MAPK14 (human) [3] was found to be 58%; on MAPK14 (human) [2], 10%.

The compound `CCCCCCCCOc1cccc(NC(=O)Cn2nc(-c3ccc(F)cc3)c(-c3ccncc3)c2C)c1` displayed an inhibition at MAPK14 (human) [3] of 86%. The negative-log IC50 (pIC50) against MAPK14 (human) [2] was less than 5.00.

In the case of `Cc1c(-c2ccncc2)c(-c2ccc(F)cc2)nn1CC(=O)N1CCCN(C)CC1`, the inhibition on MAPK14 (human) [3] was 51%; against MAPK14 (human) [2] it was 24%.

For `COC(=O)[C@H](CCSC)NC(=O)Cn1nc(-c2ccc(F)cc2)c(-c2ccncc2)c1C`, the inhibition on MAPK14 (human) [3] stood at 58%; against MAPK14 (human) [2], 36%.

`CC(C)=CC(=O)NCCCc1[nH]nc(-c2ccc(F)cc2)c1-c1ccncc1` displayed an inhibition on MAPK14 (human) [3] of 72%. Besides, at MAPK14 (human) [2], the pIC50 was 5.74.

For `Cc1c(-c2ccncc2)c(-c2ccc(F)cc2)nn1CC(=O)NC1CCc2ccccc21` (configuration not stated), the inhibition is 73% against MAPK14 (human) [3] and 25% on MAPK14 (human) [2].

Regarding `CCC(C(=O)NCc1[nH]nc(-c2ccc(F)cc2)c1-c1ccncc1)c1ccccc1` (configuration not stated), the inhibition on MAPK14 (human) [3] amounted to 94%; on MAPK14 (human) [2], 76%.

Regarding `Cc1cccc(S(=O)(=O)N[C@H](C)c2[nH]nc(-c3ccc(F)cc3)c2-c2ccncc2)c1`, the pIC50 on MAPK14 (human) [3] is 7.60. For the same compound, the inhibition against MAPK14 (human) [2] worked out at 96%.

The compound `CCCCCSc1cccc(NC(=O)Cn2nc(-c3ccc(F)cc3)c(-c3ccncc3)c2C)c1` had an inhibition on MAPK14 (human) [3] of 94%. The same compound showed a pIC50 on MAPK14 (human) [2] of less than 5.00.

For `CCOC(=O)c1ccc(NC(=O)NCCc2[nH]nc(-c3ccc(F)cc3)c2-c2ccncc2)cc1`, the inhibition at MAPK14 (human) [3] was found to be 90%; against MAPK14 (human) [2], 17%.

With `COC(=O)[C@@H]1CCCN1C(=O)Cn1nc(-c2ccc(F)cc2)c(-c2ccncc2)c1C`, the inhibition was 60% against MAPK14 (human) [3] and 39% at MAPK14 (human) [2].

The pIC50 is the negative decadic logarithm of the IC50, by convention in mol/L. Broadly, the inhibition is how much of the control response was suppressed. A lower inhibition goes with a response near the control.
